The values below come from publication PMC8168755, “Discovery of new VEGFR-2 inhibitors based on bis([1, 2, 4]triazolo)[4,3-a:3',4'-c]quinoxaline derivatives as anticancer agents and apoptosis inducers” (Journal of Enzyme Inhibition and Medicinal Chemistry, 2021).

One may read the IC50 as the point on the concentration scale where inhibition reaches its midpoint.

Assay [1] deals with VEGFR-2 (Homo sapiens, UniProt P35968). Briefly: biochemical. The procedure: All the synthesised compounds were tested for their inhibitory activity against VEGFR-2 as described in Supplementary data[75].
VEGFR-2, sequence (P35968 20-1356): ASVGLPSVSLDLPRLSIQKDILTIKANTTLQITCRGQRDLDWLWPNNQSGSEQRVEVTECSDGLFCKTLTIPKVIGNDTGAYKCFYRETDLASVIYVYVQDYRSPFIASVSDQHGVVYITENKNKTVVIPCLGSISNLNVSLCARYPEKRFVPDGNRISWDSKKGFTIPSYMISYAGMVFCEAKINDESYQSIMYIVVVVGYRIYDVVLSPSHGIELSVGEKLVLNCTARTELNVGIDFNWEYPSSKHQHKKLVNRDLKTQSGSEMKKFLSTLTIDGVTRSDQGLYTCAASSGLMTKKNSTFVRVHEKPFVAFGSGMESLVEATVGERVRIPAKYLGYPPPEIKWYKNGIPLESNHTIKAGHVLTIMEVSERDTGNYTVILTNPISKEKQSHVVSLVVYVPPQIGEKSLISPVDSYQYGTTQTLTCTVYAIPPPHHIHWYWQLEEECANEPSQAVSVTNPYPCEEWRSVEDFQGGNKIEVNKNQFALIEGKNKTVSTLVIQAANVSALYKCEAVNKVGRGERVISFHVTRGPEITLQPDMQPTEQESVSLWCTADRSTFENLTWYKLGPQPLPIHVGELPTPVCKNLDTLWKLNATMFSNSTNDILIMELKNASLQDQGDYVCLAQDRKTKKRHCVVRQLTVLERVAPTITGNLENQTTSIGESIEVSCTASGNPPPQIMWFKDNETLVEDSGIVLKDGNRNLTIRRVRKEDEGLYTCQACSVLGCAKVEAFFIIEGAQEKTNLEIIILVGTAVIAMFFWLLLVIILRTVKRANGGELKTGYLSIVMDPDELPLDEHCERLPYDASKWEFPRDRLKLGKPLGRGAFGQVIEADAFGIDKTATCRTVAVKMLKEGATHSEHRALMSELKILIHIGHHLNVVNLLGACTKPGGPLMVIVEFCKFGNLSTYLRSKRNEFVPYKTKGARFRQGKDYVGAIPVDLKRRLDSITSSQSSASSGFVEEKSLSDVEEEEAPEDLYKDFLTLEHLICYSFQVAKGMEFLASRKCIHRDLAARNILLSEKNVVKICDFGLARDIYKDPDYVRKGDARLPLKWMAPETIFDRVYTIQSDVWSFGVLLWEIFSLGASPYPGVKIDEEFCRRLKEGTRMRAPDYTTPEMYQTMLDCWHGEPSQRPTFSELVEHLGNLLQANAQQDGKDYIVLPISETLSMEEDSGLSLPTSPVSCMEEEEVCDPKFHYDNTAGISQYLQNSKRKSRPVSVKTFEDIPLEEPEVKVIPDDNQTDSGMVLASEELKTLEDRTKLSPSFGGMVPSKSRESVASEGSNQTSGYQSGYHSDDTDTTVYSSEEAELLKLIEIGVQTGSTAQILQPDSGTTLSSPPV
Experimental of biological testing […]
2. In vitro VEGFR-2 kinase assay
All the synthesized compounds were tested for its inhibitory activity against VEGFR-2. Human VEGFR-2 ELISA kit (Enzyme-Linked Immunosorbent Assay) was utilized in this test. At first, specific antibody for VEGFR-2 was seeded on a 96-well plate and 100 μL of the standard solution or the tested compound was added, all were incubated at room temperature for 2.5 h. Then washed, 100 μL of the prepared biotin antibody was added, then incubated at room temperature for additional 1 h. and washed. Then, 100 μL of streptavidin solution was added and incubated for 45 min. at room temperature. Washed again, 100 μL of TMB Substrate reagent was added and incubated for 30 min. at room temperature. 50 μL of the stop solution was added, then read at 450 […]
nm immediately. […]

The subject of assay [2] is MCF-7. The assay is described as follows: In vitro anti-proliferative activity (MTT assay), MCF-7. Format: cell-based, human. The note with it: read-out: IC50 (µM) MCF-7. The procedure:
(§1) All newly prepared compounds were assessed for their in vitro cytotoxic efficiencies via standard MTT method, against breast cancer (MCF-7) and hepatocellular carcinoma (HepG2) cell lines.
(§2) MTT assay protocol[55–57]^,[74] was applied as described in Supplementary data.
(§3) Experimental of biological testing
(§4) 1. In vitro anti-proliferative activity
(§5) the synthesized compounds.
(§6) oC for 48 h under 5% CO2.
(§7) the synthesized compounds and incubated for 24 h.
In general terms: Formazan colour is commonly taken as a measure of viable cells.

Assay [3] relates to HepG2. Briefly: In vitro anti-proliferative activity (MTT assay), HepG2. Type of assay: cell-based, human. The note with it: read-out: IC50 (µM) HepG2. The procedure:
as §1, §2, §3, §4, §5, §6, §7

Assay [4] concerns MCF-7 and HepG2 cell lines. Briefly: In vitro anti-proliferative activity (MTT assay), stated over both cell lines. Type of assay: cell-based. The note with it: Homo sapiens, read-out: IC50 values ranging over the two cell lines (MCF-7 and HepG2).
The subject of assay [5] is Bcl-2. The note with it: HepG2, 24 h.
In assay [6] the test system is BAX. The settings on record: HepG2, 24 h.
Where [7] appears, read: mean ± SD of three separate experiments.
The mark [8] stands for this setting: Homo sapiens, MCF7, MTT, 24 h treatment, mean ± SD of three separate experiments.
The mark [9] stands for this setting: Homo sapiens, HepG2, MTT, 24 h treatment, mean ± SD of three separate experiments.
Setting [10] is: MTT, range stated for a group of compounds and both cell lines.
Where [11] appears, read: control 1.00, mean ± SEM of three experiments.
Where [12] appears, read: MTT, 24 h treatment, mean ± SD of three separate experiments.

Where two headings read alike, the source gives them in different places.

In the case of `CCNC(=O)c1ccc(NC(=O)CSc2nnc3c4nncn4c4ccccc4n23)cc1` [Compound 23a, 4-(2-(Bis([1,2, 4]triazolo)[4,3-a:3',4'-c]quinoxalin-3-ylthio)acetamido)-N-ethylbenzamide], the IC50 in assay [1] (setting [7]) is 7.1 ± 0.4 nM; in assay [2] (setting [8]), 17.7 ± 1.5 µM; in assay [3] (setting [9]), 11.3 ± 0.9 µM; in assay [4] (setting [10]), 6.4 to 19.4 µM.

In the case of `CCCCNC(=O)c1ccc(NC(=O)CSc2nnc3c4nncn4c4ccccc4n23)cc1` [Compound 23b, 4-(2-(Bis([1,2, 4]triazolo)[4,3-a:3',4'-c]quinoxalin-3-ylthio)acetamido)-N-butylbenzamide], the values for the concentration for half-maximal inhibition (IC50) in assay [1] (setting [7]), in assay [2] (setting [8]) and in assay [3] (setting [9]) were 71.6 ± 5.2 nM, 78.9 ± 6.1 µM and 69.1 ± 6.1 µM, respectively.

For the compound `CCC(C)NC(=O)c1ccc(NC(=O)CSc2nnc3c4nncn4c4ccccc4n23)cc1` (stereo not drawn) [Compound 23c, 4-(2-(Bis([1,2, 4]triazolo)[4,3-a:3',4'-c]quinoxalin-3-ylthio)acetamido)-N-(sec-butyl)benzamide], the concentration for half-maximal inhibition (IC50) in assay [1] (setting [7]) turned out to be 47.1 ± 4.2 nM; in assay [2] (setting [8]), 76.2 ± 6.9 µM; in assay [3] (setting [9]) it was 69.8 ± 5.9 µM.

For the compound `CC(C)(C)NC(=O)c1ccc(NC(=O)CSc2nnc3c4nncn4c4ccccc4n23)cc1` [Compound 23d, 4-(2-(Bis([1,2, 4]triazolo)[4,3-a:3',4'-c]quinoxalin-3-ylthio)acetamido)-N-(tert-butyl)benzamide], the IC50 in assay [1] (setting [7]) is 11.8 ± 0.8 nM; in assay [2] (setting [8]), 21.6 ± 1.8 µM; in assay [3] (setting [9]), 17.5 ± 1.2 µM; in assay [4] (setting [10]), 15.2 to 48.3 µM.

Turning to `O=C(CSc1nnc2c3nncn3c3ccccc3n12)Nc1ccc(C(=O)NC2CCCC2)cc1` [Compound 23e, 4-(2-(Bis([1,2, 4]triazolo)[4,3-a:3',4'-c]quinoxalin-3-ylthio)acetamido)-N-cyclopentylbenzamide], the IC50 was 39.8 ± 3.1 nM in assay [1] (setting [7]), 78.3 ± 6.5 µM in assay [2] (setting [8]) and 74.8 ± 6.9 µM in assay [3] (setting [9]).

On to `O=C(CSc1nnc2c3nncn3c3ccccc3n12)Nc1ccc(C(=O)NC2CCCCC2)cc1` [Compound 23f, 4-(2-(Bis([1,2, 4]triazolo)[4,3-a:3',4'-c]quinoxalin-3-ylthio)acetamido)-N-cyclohexylbenzamide], for which the values for the IC50 in assay [1] (setting [7]), in assay [2] (setting [8]) and in assay [3] (setting [9]) were 39.5 ± 2.9 nM, 74.1 ± 6.7 µM and 70.4 ± 5.8 µM, respectively.

In the case of `CC(=O)c1ccc(NC(=O)c2ccc(NC(=O)CSc3nnc4c5nncn5c5ccccc5n34)cc2)cc1` [Compound 23g, N-(4-Acetylphenyl)-4-(2-(bis([1,2, 4]triazolo)[4,3-a:3',4'-c]quinoxalin-3-ylthio)acetamido)benzamide], the IC50 in assay [1] (setting [7]) was determined as 62.7 ± 5.7 nM; in assay [2] (setting [8]) it was 81.3 ± 7.4 µM; in assay [3] (setting [9]) it was 80.7 ± 7.1 µM.

For the compound `O=C(CSc1nnc2c3nncn3c3ccccc3n12)Nc1ccc(C(=O)Nc2cccc(Cl)c2)cc1` [Compound 23h, 4-(2-(Bis([1,2, 4]triazolo)[4,3-a:3',4'-c]quinoxalin-3-ylthio)acetamido)-N-(3-chlorophenyl)benzamide], the IC50 was 11.7 ± 0.9 nM in assay [1]; 37.2 ± 3.2 µM in assay [2] (Homo sapiens, MCF7, 24 h); 22.3 ± 1.8 µM in assay [3] (Homo sapiens, HepG2, 24 h); 15.2 to 48.3 µM in assay [4].

`O=C(CSc1nnc2c3nncn3c3ccccc3n12)Nc1ccc(C(=O)Nc2ccc(Cl)cc2)cc1` [Compound 23i, 4-(2-(Bis([1,2, 4]triazolo)[4,3-a:3',4'-c]quinoxalin-3-ylthio)acetamido)-N-(4-chlorophenyl)benzamide] gave an IC50 in assay [1] (setting [7]) of 9.4 ± 0.7 nM.

For the compound `O=C(CSc1nnc2c3nncn3c3ccccc3n12)Nc1ccc(C(=O)Nc2cc(Cl)ccc2Cl)cc1` [Compound 23j, 4-(2-(Bis([1,2, 4]triazolo)[4,3-a:3′,4′-c]uinoxaline-3-ylthio)acetamido)-N-(2,5-dichlorophenyl)benzamide], in assay [5] (compared to control cells), the “Decrease of Bcl-2 level” value was 2.63 fold. The “Protein expression (normalized to β-actin) Bcl-2” value in assay [5] (setting [11]) stood at 0.38 ± 0.03. Further, the IC50 in assay [1] came out at 3.7 ± 0.2 nM; in assay [2] (setting [12]), 10.3 ± 0.8 µM; in assay [3] (setting [12]), 6.4 ± 0.5 µM. Moreover, in assay [6] (compared to control cells), the “Increase of BAX level” value is recorded as 1.65 fold. Also, the “Protein expression (normalized to β-actin) BAX” value in assay [6] (setting [11]) is listed as 1.65 ± 0.06.

In the case of `O=C(CSc1nnc2c3nncn3c3ccccc3n12)Nc1ccc(C(=O)Nc2ccc(F)cc2)cc1` [Compound 23k, 4-(2-(Bis([1,2, 4]triazolo)[4,3-a:3′,4′-c]uinoxaline-3-ylthio)acetamido)-N-(4-fluorophenyl)benzamide], the IC50 turned out to be 49.6 ± 4.1 nM in assay [1] (setting [7]), 68.2 ± 5.2 µM in assay [2] (setting [8]) and 71.8 ± 6.3 µM in assay [3] (setting [9]).

Regarding `O=C(CSc1nnc2c3nncn3c3ccccc3n12)Nc1ccc(C(=O)Nc2ccccc2O)cc1` [Compound 23l, 4-(2-(Bis([1,2, 4]triazolo)[4,3-a:3′,4′-c]uinoxaline-3-ylthio)acetamido)-N-(2-hydroxyphenyl)benzamide], the IC50 was determined as 5.8 ± 0.3 nM in assay [1] (setting [7]), 19.4 ± 1.1 µM in assay [2] (setting [12]) and 11.3 ± 0.7 µM in assay [3] (setting [12]).

Regarding `O=C(CSc1nnc2c3nncn3c3ccccc3n12)Nc1ccc(C(=O)Nc2ccc(O)cc2)cc1` [Compound 23m, 4-(2-(Bis([1,2, 4]triazolo)[4,3-a:3′,4′-c]uinoxaline-3-ylthio)acetamido)-N-(4-hydroxyphenyl)benzamide], the IC50 in assay [1] (setting [7]) was 9.7 ± 0.7 nM; in assay [2] (setting [8]), 21.6 ± 1.7 µM; in assay [3] (setting [9]), 15.2 ± 1.2 µM; in assay [4] (setting [10]), 15.2 to 48.3 µM.

Turning to `O=C(CSc1nnc2c3nncn3c3ccccc3n12)Nc1ccc(C(=O)Nc2ccc([N+](=O)[O-])cc2O)cc1` [Compound 23n, 4-(2-(Bis([1,2, 4]triazolo)[4,3-a:3′,4′-c]uinoxaline-3-ylthio)acetamido)-N-(2-hydroxy-4-nitrophenyl)benzamide], the IC50 in assay [1] (setting [7]) was 7.4 ± 0.5 nM; in assay [2] (setting [8]), 16.5 ± 1.3 µM; in assay [3] (setting [9]), 12.7 ± 0.9 µM; in assay [4] (setting [10]) it was 6.4 to 19.4 µM.

As for `O=C(CSc1nnc2c3nncn3c3ccccc3n12)Nc1ccc(C(=O)NNC(=O)c2ccccc2Cl)cc1` [Compound 24a, 2-(Bis([1,2, 4]triazolo)[4,3-a:3',4'-c]quinoxalin-3-ylthio)-N-(4–(2-(2-chlorobenzoyl)hydrazine-1-carbonyl)phenyl)acetamide], the IC50 in assay [1] (setting [7]) is 23.9 ± 1.9 nM; in assay [2] (setting [8]) it was 48.3 ± 3.9 µM; in assay [3] (setting [9]) it was 34.5 ± 2.8 µM; in assay [4] (setting [10]), 15.2 to 48.3 µM.

On to `O=C(CSc1nnc2c3nncn3c3ccccc3n12)Nc1ccc(C(=O)NNC(=O)c2cccc(Cl)c2)cc1` [Compound 24b, 2-(Bis([1,2, 4]triazolo)[4,3-a:3',4'-c]quinoxalin-3-ylthio)-N-(4–(2-(3-chlorobenzoyl)hydrazine-1-carbonyl)phenyl)acetamide], for which the IC50 was 22.3 ± 1.8 nM in assay [1] (setting [7]), 42.7 ± 3.7 µM in assay [2] (setting [8]), 30.3 ± 2.7 µM in assay [3] (setting [9]) and 15.2 to 48.3 µM in assay [4] (setting [10]).

As to `O=C(CSc1nnc2c3nncn3c3ccccc3n12)Nc1ccc(C(=O)NNC(=O)c2ccccc2O)cc1` [Compound 24c, 2-(Bis([1,2, 4]triazolo)[4,3-a:3',4'-c]quinoxalin-3-ylthio)-N-(4–(2-(2-hydroxybenzoyl)hydrazine-1-carbonyl)phenyl)acetamide], the IC50 is 20.7 ± 1.6 nM in assay [1] (setting [7]), 40.7 ± 3.7 µM in assay [2] (setting [8]), 29.8 ± 2.1 µM in assay [3] (setting [9]) and 15.2 to 48.3 µM in assay [4] (setting [10]).

For the compound `CNC(=O)c1cc(Oc2ccc(NC(=O)Nc3ccc(Cl)c(C(F)(F)F)c3)cc2)ccn1` [Sorafenib, sorafenib, reference compound], the 50% inhibitory concentration (IC50) in assay [2] (setting [8]) was 3.51 ± 0.22 µM; in assay [3] (setting [9]), 2.17 ± 0.14 µM.
